From the NIST ThermoML archive (doi:10.1016/j.jct.2011.10.001)

Assay: molar heat capacity at constant pressure
Conditions: 101.33 kPa, Crystal, Vacuum adiabatic calorimetry

CCCC(=O)OC [methyl butanoate]
Conditions	molar heat capacity at constant pressure [J/K/mol]
5 K	0.356
7.61 K	1.24
7.88 K	1.381
8.13 K	1.514
8.39 K	1.657
8.65 K	1.805
8.9 K	2.108
9.16 K	2.207
9.41 K	2.466
9.66 K	2.549
9.91 K	2.719
10 K	2.828
10.22 K	2.894
10.6 K	3.3
10.98 K	3.648
11.35 K	4.064
11.73 K	4.38
12.13 K	4.735
12.5 K	5.111
12.86 K	5.563
13.23 K	5.907
13.6 K	6.278
13.96 K	6.646
14.33 K	7.063
14.68 K	7.551
15 K	7.893
15.04 K	7.92
15.4 K	8.318
15.76 K	8.825
16.11 K	9.332
16.47 K	9.652
16.82 K	10.21
17.17 K	10.66
17.53 K	11.07
17.88 K	11.41
18.23 K	11.84
18.58 K	12.53
18.93 K	12.9
19.28 K	13.53
19.63 K	13.98
19.98 K	14.42
20 K	14.36
20.62 K	15.2
21.39 K	16.16
22.15 K	17.23
22.91 K	18.29
23.67 K	19.35
24.44 K	20.59
25 K	21.25
25.2 K	21.61
25.97 K	22.55
26.73 K	23.64
27.49 K	24.49
28.25 K	25.82
29.01 K	26.93
29.77 K	27.91
30 K	28.14
30.53 K	29.04
31.29 K	29.6
32.82 K	31.82
33.59 K	32.79
34.35 K	33.88
35 K	34.59
35.11 K	34.58
35.86 K	35.63
36.61 K	36.63
37.37 K	37.49
38.12 K	38.33
38.88 K	38.88
39.63 K	39.87
40 K	40.28
40.39 K	40.69
41.14 K	41.43
41.9 K	42.12
42.65 K	43.21
43.4 K	44
44.16 K	44.51
44.91 K	45.66
45 K	45.57
45.66 K	46.29
46.41 K	47.13
47.17 K	47.63
47.92 K	48.66
48.66 K	49.52
49.41 K	50.2
50 K	50.77
50.16 K	50.98
50.91 K	51.69
51.66 K	52.27
52.4 K	53.16
53.15 K	54.06
53.89 K	54.63
54.64 K	55.7
55 K	55.94
55.38 K	56.48
56.12 K	57.16
56.87 K	57.9
59.09 K	60.08
59.84 K	60.45
60 K	60.87
60.58 K	61.42
61.32 K	62.07
62.06 K	62.68
62.8 K	63.44
63.54 K	64.04
64.28 K	64.72
65 K	65.14
65.03 K	65.05
65.77 K	65.7
66.5 K	66.39
67.24 K	66.79
67.98 K	67.34
68.72 K	67.73
69.46 K	68.24
70 K	68.48
70.2 K	68.47
71.09 K	68.75
72.14 K	69.62
73.19 K	70.47
74.24 K	70.88
75 K	71.36
75.29 K	71.51
76.34 K	72.3
77.39 K	72.87
78.44 K	73.35
78.68 K	72.62
79.48 K	74.12
79.71 K	73.82
80 K	74.1
80.53 K	74.83
80.74 K	74.41
81.58 K	75.43
81.76 K	74.8
82.62 K	75.67
82.79 K	75.48
83.67 K	76.36
83.81 K	75.48
84.83 K	76.86
85 K	76.9
85.85 K	77.51
86.87 K	77.78
87.89 K	78.68
88.91 K	79.57
89.93 K	79.99
90 K	79.81
90.96 K	80.42
91.97 K	80.85
92.99 K	81.43
94.01 K	82.02
95 K	82.75
95.03 K	82.39
96.04 K	83.43
97.06 K	84.19
98.07 K	84.16
99.09 K	84.89
100 K	85.29
100.1 K	85.45
101.62 K	86.18
103.64 K	87.3
105.66 K	88.28
107.68 K	89.36
109.7 K	90.17
110 K	90.46
111.72 K	91.08
113.73 K	92.15
115.74 K	93.34
117.75 K	94.24
119.76 K	95.16
120 K	95.31
121.76 K	96.24
123.77 K	97.13
125.78 K	98.02
127.78 K	98.84
129.79 K	99.75
